Laboratory results: PubChem BioAssay (NCI)
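A five-concentration, 48-hour dose response in 96-well plates underlies each endpoint, interpolated linearly between surrounding concentrations. The concentration for 50% growth inhibition is given as GI50. TGI: concentration producing complete growth inhibition.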

Tests used:
Experiment in all cases: growth of human tumour cells (NCI), 48 h
[1] = tested on: 786-0 renal
[2] = tested on: A498 renal
[3] = tested on: A549 NSCLC
[4] = tested on: ACHN renal
[5] = tested on: BT-549 breast
[6] = tested on: CAKI-1 renal
[7] = tested on: CCRF-CEM leukemia
[8] = tested on: COLO 205 colon
[9] = tested on: DU-145 prostate
[10] = tested on: EKVX NSCLC
[11] = tested on: HCC-2998 colon
[12] = tested on: HCT-116 colon
[13] = tested on: HCT-15 colon
[14] = tested on: HL-60(TB) leukemia
[15] = tested on: HOP-62 NSCLC
[16] = tested on: HOP-92 NSCLC
[17] = tested on: HS 578T breast
[18] = tested on: HT29 colon
[19] = tested on: IGROV1 ovarian
[20] = tested on: K-562 leukemia
[21] = tested on: KM12 colon
[22] = tested on: LOX IMVI melanoma
[23] = tested on: M14 melanoma
[24] = tested on: MALME-3M melanoma
[25] = tested on: MCF7 breast
[26] = tested on: MDA-MB-231 breast
[27] = tested on: MDA-MB-435
[28] = tested on: MDA-MB-468 breast
[29] = tested on: MOLT-4 leukemia
[30] = tested on: NCI-H226 lung
[31] = tested on: NCI-H23 lung
[32] = tested on: NCI-H460 lung
[33] = tested on: NCI-H522 lung
[34] = tested on: OVCAR-3 ovarian
[35] = tested on: OVCAR-4 ovarian
[36] = tested on: OVCAR-5 ovarian
[37] = tested on: OVCAR-8 ovarian
[38] = tested on: PC-3 prostate
[39] = tested on: RPMI-8226 leukemia
[40] = tested on: RXF 393 renal
[41] = tested on: SF-268 CNS
[42] = tested on: SF-295 CNS
[43] = tested on: SF-539 CNS
[44] = tested on: SK-MEL-2 melanoma
[45] = tested on: SK-MEL-28 melanoma
[46] = tested on: SK-MEL-5 melanoma
[47] = tested on: SK-OV-3 ovarian
[48] = tested on: SN12C renal
[49] = tested on: SNB-19 CNS
[50] = tested on: SNB-75 CNS
[51] = tested on: SR leukemia
[52] = tested on: SW-620 colon
[53] = tested on: T-47D breast
[54] = tested on: TK-10 renal
[55] = tested on: U251 CNS
[56] = tested on: UACC-257 melanoma
[57] = tested on: UACC-62 melanoma
[58] = tested on: UO-31 renal

Structure (SMILES): O=C(c1ccc(Cl)cc1)C1[C@H](c2ccc(Br)cc2)[C@@H](c2ccccc2)NC12C(=O)Nc1ccccc12 (stereo partly specified)
- GI50 [1]: 8 µM
- TGI [1]: 23.1 µM
- GI50 [2]: 10.7 µM
- TGI [2]: 22.2 µM
- GI50 [3]: 5.03 µM
- TGI [3]: 15.9 µM
- GI50 [4]: 5.64 µM
- TGI [4]: 15.5 µM
- GI50 [5]: 8.86 µM
- TGI [5]: 17 µM
- GI50 [6]: 2.88 µM
- TGI [6]: 17.4 µM
- GI50 [7]: 4.54 µM
- TGI [7]: 26.8 µM
- GI50 [8]: 9.95 µM
- TGI [8]: 19.6 µM
- GI50 [9]: 9.92 µM
- TGI [9]: 28.5 µM
- GI50 [10]: 9.02 µM
- TGI [10]: 29 µM
- GI50 [11]: 7.79 µM
- TGI [11]: 16.7 µM
- GI50 [12]: 3.83 µM
- TGI [12]: 13.5 µM
- GI50 [13]: 6.91 µM
- TGI [13]: 18.7 µM
- GI50 [14]: 8.74 µM
- TGI [14]: 40.8 µM
- GI50 [15]: 8.69 µM
- TGI [15]: 18.3 µM
- GI50 [16]: 6.27 µM
- TGI [16]: 15.1 µM
- GI50 [17]: 8.79 µM
- TGI [17]: 26.3 µM
- GI50 [18]: 5.7 µM
- TGI [18]: 15 µM
- GI50 [19]: 7.01 µM
- TGI [19]: 16.2 µM
- GI50 [20]: 2.94 µM
- TGI [20]: 56 µM
- GI50 [21]: 6.13 µM
- TGI [21]: 17.9 µM
- GI50 [22]: 5.04 µM
- TGI [22]: 14.3 µM
- GI50 [23]: 6.97 µM
- TGI [23]: 16.4 µM
- GI50 [24]: 8.65 µM
- TGI [24]: 16.3 µM
- GI50 [25]: 4.65 µM
- TGI [25]: 29.3 µM
- GI50 [26]: 6.21 µM
- TGI [26]: 13.5 µM
- GI50 [27]: 7.84 µM
- TGI [27]: 16.9 µM
- GI50 [28]: 8.43 µM
- TGI [28]: 19.5 µM
- GI50 [29]: 2.69 µM
- TGI [29]: 48.7 µM
- GI50 [30]: 7.87 µM
- TGI [30]: 15.9 µM
- GI50 [31]: 8.53 µM
- TGI [31]: 19.6 µM
- GI50 [32]: 5.88 µM
- TGI [32]: 16 µM
- GI50 [33]: 5.93 µM
- TGI [33]: 15.5 µM
- GI50 [34]: 8.74 µM
- TGI [34]: 27.4 µM
- GI50 [35]: 8.37 µM
- TGI [35]: 31.3 µM
- GI50 [36]: 7.19 µM
- TGI [36]: 15.1 µM
- GI50 [37]: 8.26 µM
- TGI [37]: 17.3 µM
- GI50 [38]: 2.86 µM
- TGI [38]: 17.7 µM
- GI50 [39]: 6.53 µM
- TGI [39]: 33.9 µM
- GI50 [40]: 6.62 µM
- TGI [40]: 14 µM
- GI50 [41]: 7.03 µM
- TGI [41]: 28.9 µM
- GI50 [42]: 6.33 µM
- TGI [42]: 16.9 µM
- GI50 [43]: 8.59 µM
- TGI [43]: 18 µM
- GI50 [44]: 8.59 µM
- TGI [44]: 16.9 µM
- GI50 [45]: 7.53 µM
- TGI [45]: 15.1 µM
- GI50 [46]: 9.7 µM
- TGI [46]: 17.7 µM
- GI50 [47]: 14.8 µM
- TGI [47]: 54 µM
- GI50 [48]: 5.41 µM
- TGI [48]: 12.3 µM
- GI50 [49]: 10.7 µM
- TGI [49]: 42.2 µM
- GI50 [50]: 5.1 µM
- TGI [50]: 26.1 µM
- GI50 [51]: 4.32 µM
- TGI [51]: 42.2 µM
- GI50 [52]: 7.4 µM
- TGI [52]: 18.6 µM
- GI50 [53]: 3.96 µM
- TGI [53]: 16 µM
- GI50 [54]: 8.72 µM
- TGI [54]: 20.1 µM
- GI50 [55]: 7.49 µM
- TGI [55]: 16 µM
- GI50 [56]: 7.28 µM
- TGI [56]: 16.3 µM
- GI50 [57]: 4.16 µM
- TGI [57]: 12.1 µM
- GI50 [58]: 3.37 µM
- TGI [58]: 12 µM
